In ChEMBL document CHEMBL1158306, “Chlorinated annonaceous acetogenins and their bioactivities” (J Nat Prod, 1996):
Values after ≈ are worked out from the molar mass of the structure shown.

Key:
PC-3 = assay: Cytotoxicity against human PC3 cells after 7 days by MTT assay; type: functional; settings: PC-3, 168 h, read-out: ED50 (the source's name)
A498 = assay: Cytotoxicity against human A498 cells after 7 days by MTT assay; type: functional; settings: A498, 168 h, read-out: ED50 (the source's name)
MIA PaCa-2 = assay: Cytotoxicity against human MIAPaCa2 cells after 7 days by MTT assay; type: functional; settings: MIA PaCa-2, 168 h, read-out: ED50 (the source's name)
[1] = Toxicity in brine shrimp larvae; type: organism-based; settings: artemia, in vivo
MCF7 = assay: Cytotoxicity against human MCF7 cells after 7 days by MTT assay; type: functional; settings: MCF7, 168 h, read-out: ED50 (the source's name)
HT-29 = assay: Cytotoxicity against human HT29 cells after 7 days by MTT assay; type: functional; settings: for EC50: Homo sapiens, HT-29, 168 h, read-out: ED50 (the source's name)
A549 = assay: Cytotoxicity against human A549 cells after 7 days by MTT assay; type: functional; settings: A549, 168 h, read-out: ED50 (the source's name)

| Structure (SMILES) | EC50 (PC-3) | EC50 (A498) | EC50 (MIA PaCa-2) | LC50 [1] | EC50 (MCF7) | EC50 (HT-29) | EC50 (A549) | ED50 (HT-29) |
| --- | --- | --- | --- | --- | --- | --- | --- | --- |
| CCCCCCCCCCCCCCC(Cl)[C@@H]1CC[C@H]([C@@H]2CC[C@@H](CCCCC[C@H](Cl)CC3=C[C@H](C)OC3=O)O2)O1 (stereo not given in full) | 0.755 µg/mL (≈ 1.23 µM) | 2.47 µg/mL (≈ 4.01 µM) | 1.16 µg/mL (≈ 1.88 µM) | 31.9 µg/mL (≈ 51.8 µM) | > 10 µg/mL | > 10 µg/mL | 2.39 µg/mL (≈ 3.88 µM) | – |
| CCCCCCCCCCCCCC[C@@H](O)[C@H](O)CC[C@H](O)[C@@H]1CC[C@@H](CCCCC[C@H](Cl)CC2=C[C@H](C)OC2=O)O1 | > 10 µg/mL | > 10 µg/mL | > 10 µg/mL | 54.6 µg/mL (≈ 88.7 µM) | 5.74 µg/mL (≈ 9.33 µM) | 0.38 µg/mL (≈ 0.618 µM) | > 10 µg/mL | – |
| CCCCCCCCCCCCCC[C@H](O)[C@@H]1CC[C@@H]([C@@H]2CC[C@@H](CCCCC[C@@H](O)CC3=C[C@H](C)OC3=O)O2)O1 [ASIMILOBIN] | – | – | – | – | – | 0.063 µg/mL (≈ 0.109 µM) | – | – |
| COc1cccc2c1C(=O)c1c(O)c3c(c(O)c1C2=O)C[C@@](O)(C(=O)CO)C[C@@H]3O[C@H]1C[C@H](N)[C@H](O)[C@H](C)O1 [DOXORUBICIN] | 0.0262 µg/mL (≈ 0.0482 µM) | 0.00649 µg/mL (≈ 0.0119 µM) | 0.0079 µg/mL (≈ 0.0145 µM) | – | 0.209 µg/mL (≈ 0.385 µM) | 0.0346 µg/mL (≈ 0.0637 µM) | 0.0243 µg/mL (≈ 0.0447 µM) | – |
| CCCCCCCCCCCCCC[C@@H](O)[C@H](O)CC[C@H](O)[C@@H]1CC[C@@H](CCCCC[C@@H](O)CC2=C[C@H](C)OC2=O)O1 [GIGANTETROCIN A] | – | – | – | 2.6 µg/mL (≈ 4.36 µM) | 0.63 µg/mL (≈ 1.06 µM) | – | 0.25 µg/mL (≈ 0.419 µM) | 4.1 ×10⁻⁵ ug/ml |
